According to patent US9889092B2, “Low density lipoprotein nanocarriers for targeted delivery of omega-3 polyunsaturated fatty acids to cancer” (The Board of Regents of the University of Texas System, priority 2013, dated 2018):

Legend:
[1] = Oxidative stability of LDL nanoparticles (peroxide value, HPLC DHA content); format: physicochemical; details: under air at 55° C. for 5 hrs
Text: FIGS. 4A-D. Oxidative stability: (FIG. 4A) HPLC determination of DHA content in LDL nanoparticles and DHA in heptane; (**) p<0.01 DHA in heptane versus LDL-DHA, after 14 days; (***) p<0.001, DHA in heptane versus LDL-DHA, after 21 and 28 days. (FIG. 4B) Peroxide indices of LDL, DHA in heptane, and LDL-DHA nanoparticles. Samples from FIG. 4A and FIG. 4B were stored at ambient conditions and were subjected to HPLC or peroxide analysis at baseline, 7, 14, 21, and 28 days; (**) p<0.01, DHA in heptane versus LDL-DHA after 14 days; (***) p<0.001, LDL or DHA in heptane versus LDL-DHA after 21 and 28 days; (****) p<0.0001, LDL versus LDL-DHA, after 28 days. […] DHA content is expressed as a percentage of baseline control. The peroxide index is expressed as mEq of peroxide/Kg of lipid.
Oxidative stability of LDL nanoparticles. […] Absorbance of red color formed from the presence of ferric ion was measured at 500 nm using UV-visible spectrophotometer (UV 1800, Shimadzu, USA) and the concentration was determined using a calibration curve of ferric chloride (FeCl3). […] The peroxide value was calculated using the following formula: PV=[Fe3+]/(55.84×g of lipids×2) where 55.84 is the molecular weight of iron. Results were expressed as mEq peroxide/kg lipid.

[2] = tested on: TIB-75 cells; assay: Cell toxicity assay (MTS), TIB-75; format: cell-based, mouse; details: 40 μM LDL-DHA with 100 or 200 μM Vitamin E, 72 hours
Procedure: Cell culture. The mouse liver cell line TIB-73 (BNL CL.2) and its malignant counterpart TIB-75 (BNL 1MEA.7R.1) were obtained from ATCC (Manassas, Va.) and cultured in Dulbeco's modified Eagle's medium (DMEM) supplemented with 10% fetal bovine serum (FBS). Cells were grown at 37° C. in an atmosphere of 5% CO2 in a humidified incubator.
Cell toxicity assay (MTS). Each cell type was seeded in 96-well plates (2×10^3 cells/well). After 48 hrs of culture, the cells received various concentrations of the LDL-DHA nanoparticles ranging from 0 to 100 μM (DHA). For controls (LDL-OA/TO) dosing went as high as 200 μM. At the end of the 72 hr treatment period, the cell viability was measured by the MTS assay as recommended by the manufacturer. In brief, 20 μL MTS solution was added to each well and cells were incubated at 37° C. for 4 hrs followed by absorbance readings at 490 nm. The relative cell viability is expressed as a percentage of the non treated controls.

Compound	oxidative stability in final stress test [1]	effect of co-incubation on LDL-DHA cytotoxicity in TIB-75 cells [2]
CC/C=C\C/C=C\C/C=C\C/C=C\C/C=C\C/C=C\CCC(=O)O [DHA in heptane, docosahexaenoic acid]	significant degradative peroxidation	–
vitamin E	–	effectively abrogate the cytotoxicity of LDL-DHA
